These results are taken from the supplement of paper PMC10307832.

Assay in all cases: relative viability (nuclei count vs DMSO), 5 days (fraction); higher = more cells survive
Compound in assay [1]: CC[C@H](CO)Nc1nc(NCc2ccccc2)c2ncn(C(C)C)c2n1 [Seliciclib] + NC(=O)Nc1cc(-c2cccc(F)c2)sc1C(=O)N[C@H]1CCCNC1 [AZD7762] (partner 0.2 µM)
In outline:
(§1)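 Lung cancer cell lines were seeded in 1536-well plates and dosed by pin tool the next day, with either a single drug or a fixed anchor-drug dose combined with five library-drug doses (not always all listed) spaced in √10 steps. Five days later, one step fixed the cells and stained their nuclei (final 0.05% Triton X-100, 1% formaldehyde, 1 ug/ml Hoechst), and nuclei were counted on 4× images. Relative viability is the nuclei count in treated wells divided by the count in vehicle wells, and each value is the median of duplicate plates.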

Compound in assay [2]: CC[C@H](CO)Nc1nc(NCc2ccccc2)c2ncn(C(C)C)c2n1 [Seliciclib] + C[C@@H](Oc1cc(-c2cnn(C3CCNCC3)c2)cnc1N)c1c(Cl)ccc(F)c1Cl [Crizotinib] (partner 1 µM)
The method, boiled down:
as §1

Compound in assay [3]: CC[C@H](CO)Nc1nc(NCc2ccccc2)c2ncn(C(C)C)c2n1 [Seliciclib] + CC(=O)c1c(C)c2cnc(Nc3ccc(N4CCNCC4)cn3)nc2n(C2CCCC2)c1=O [Palbociclib] (partner 0.5 µM)
In outline:
as §1

Compound in assay [4]: CC[C@H](CO)Nc1nc(NCc2ccccc2)c2ncn(C(C)C)c2n1 [Seliciclib] + O=C(CCCCCCC(=O)Nc1ccccc1)NO [Vorinostat] (partner 1 µM)
In outline: as §1

For NCI-H650, the relative viability in assay [1] (first compound 0.08 µM) is 1.15; in assay [1] (first compound 0.253 µM), 0.863; in assay [1] (first compound 0.8 µM) it was 1.26; in assay [1] (first compound 2.53 µM), 0.947; in assay [1] (first compound 8 µM) it was 1.07; in assay [2] (first compound 0.08 µM), 0.65. In addition, the relative viability stood at 0.713 in assay [2] (first compound 0.253 µM); 0.84 in assay [2] (first compound 0.8 µM); 0.543 in assay [2] (first compound 8 µM); 0.357 in assay [3] (first compound 0.08 µM); 0.264 in assay [3] (first compound 0.253 µM); 0.402 in assay [3] (first compound 0.8 µM). Also, the relative viability in assay [3] (first compound 2.53 µM) is 0.248; in assay [3] (first compound 8 µM), 0.234; in assay [4] (first compound 0.08 µM) it was 0.403; in assay [4] (first compound 0.253 µM), 0.36; in assay [4] (first compound 0.8 µM), 0.638; in assay [4] (first compound 2.53 µM) it was 0.3. Also, in assay [4] (first compound 8 µM), the relative viability worked out at 0.341.
NCI-H727: the relative viability came to 0.611 in assay [1] (first compound 0.08 µM); 0.731 in assay [1] (first compound 0.253 µM); 0.567 in assay [1] (first compound 0.8 µM); 0.522 in assay [1] (first compound 2.53 µM); 0.787 in assay [1] (first compound 8 µM); 0.813 in assay [2] (first compound 0.08 µM). The relative viability in assay [2] (first compound 0.253 µM) was determined as 0.882; in assay [2] (first compound 0.8 µM), 0.777; in assay [2] (first compound 2.53 µM) it was 0.829; in assay [2] (first compound 8 µM), 0.823; in assay [3] (first compound 0.08 µM), 0.619; in assay [3] (first compound 0.253 µM), 0.601. The relative viability in assay [3] (first compound 0.8 µM) is 0.555; in assay [3] (first compound 2.53 µM), 0.577; in assay [3] (first compound 8 µM) it was 0.575; in assay [4] (first compound 0.08 µM), 1.19; in assay [4] (first compound 0.253 µM) it was 1.25; in assay [4] (first compound 0.8 µM) it was 1.04. The relative viability stood at 0.744 in assay [4] (first compound 2.53 µM) and 1.07 in assay [4] (first compound 8 µM).
In the case of NCI-H838, the relative viability in assay [1] (first compound 0.08 µM) turned out to be 0.922; in assay [1] (first compound 0.253 µM), 0.966; in assay [1] (first compound 0.8 µM), 0.877; in assay [1] (first compound 2.53 µM) it was 0.939; in assay [1] (first compound 8 µM), 0.861; in assay [2] (first compound 0.08 µM), 0.806. Besides, the relative viability worked out at 0.766 in assay [2] (first compound 0.253 µM); 0.841 in assay [2] (first compound 0.8 µM); 0.936 in assay [2] (first compound 2.53 µM); 0.673 in assay [2] (first compound 8 µM); 0.216 in assay [3] (first compound 0.08 µM); 0.257 in assay [3] (first compound 0.253 µM). In addition, the relative viability was found to be 0.211 in assay [3] (first compound 0.8 µM); 0.169 in assay [3] (first compound 2.53 µM); 0.197 in assay [3] (first compound 8 µM); 0.649 in assay [4] (first compound 0.08 µM); 0.683 in assay [4] (first compound 0.253 µM); 0.666 in assay [4] (first compound 0.8 µM). Also, the relative viability in assay [4] (first compound 2.53 µM) came out at 0.595; in assay [4] (first compound 8 µM), 0.342.
Consider NCI-H1355, for which the relative viability in assay [1] (first compound 0.08 µM) is 0.805; in assay [1] (first compound 0.253 µM) it was 0.623; in assay [1] (first compound 0.8 µM), 0.799; in assay [1] (first compound 2.53 µM) it was 0.832; in assay [1] (first compound 8 µM), 0.975; in assay [2] (first compound 0.08 µM) it was 1.01. Also, the relative viability came to 1.05 in assay [2] (first compound 0.253 µM); 1.13 in assay [2] (first compound 0.8 µM); 1.16 in assay [2] (first compound 2.53 µM); 0.998 in assay [2] (first compound 8 µM); 0.374 in assay [3] (first compound 0.08 µM); 0.331 in assay [3] (first compound 0.253 µM). Also, the relative viability in assay [3] (first compound 0.8 µM) was 0.364; in assay [3] (first compound 2.53 µM) it was 0.371; in assay [3] (first compound 8 µM) it was 0.341; in assay [4] (first compound 0.08 µM) it was 0.635; in assay [4] (first compound 0.253 µM) it was 0.605; in assay [4] (first compound 0.8 µM), 0.647. Moreover, the relative viability turned out to be 0.523 in assay [4] (first compound 2.53 µM) and 0.5 in assay [4] (first compound 8 µM).
Consider NCI-H1437, for which the relative viability in assay [1] (first compound 0.08 µM) came to 1.06; in assay [1] (first compound 0.253 µM), 1.19; in assay [1] (first compound 0.8 µM), 1.17; in assay [1] (first compound 2.53 µM) it was 0.999; in assay [1] (first compound 8 µM), 1.08; in assay [2] (first compound 0.08 µM), 0.861. Moreover, the relative viability in assay [2] (first compound 0.253 µM) was found to be 0.916; in assay [2] (first compound 0.8 µM) it was 0.951; in assay [2] (first compound 2.53 µM), 0.97; in assay [2] (first compound 8 µM) it was 0.834; in assay [3] (first compound 0.08 µM), 0.323; in assay [3] (first compound 0.253 µM), 0.324. The relative viability in assay [3] (first compound 0.8 µM) came out at 0.298; in assay [3] (first compound 2.53 µM), 0.221; in assay [3] (first compound 8 µM), 0.223; in assay [4] (first compound 0.08 µM), 0.811; in assay [4] (first compound 0.253 µM), 0.901; in assay [4] (first compound 0.8 µM), 0.69. Moreover, the relative viability is 0.633 in assay [4] (first compound 2.53 µM) and 0.374 in assay [4] (first compound 8 µM).
With NCI-H1651, the relative viability came out at 0.474 in assay [1] (first compound 0.08 µM); 0.464 in assay [1] (first compound 0.253 µM); 0.488 in assay [1] (first compound 0.8 µM); 0.504 in assay [1] (first compound 2.53 µM); 0.673 in assay [1] (first compound 8 µM); 0.873 in assay [2] (first compound 0.08 µM). Further, the relative viability in assay [2] (first compound 0.253 µM) turned out to be 0.861; in assay [2] (first compound 0.8 µM), 0.831; in assay [2] (first compound 2.53 µM), 0.814; in assay [2] (first compound 8 µM), 0.82; in assay [3] (first compound 0.08 µM) it was 0.51; in assay [3] (first compound 0.253 µM) it was 0.512. Besides, the relative viability in assay [3] (first compound 0.8 µM) was 0.502; in assay [3] (first compound 2.53 µM), 0.436; in assay [3] (first compound 8 µM) it was 0.411; in assay [4] (first compound 0.08 µM), 0.515; in assay [4] (first compound 0.253 µM), 0.551; in assay [4] (first compound 0.8 µM), 0.542. For the same cell line, the figures for the relative viability in assay [4] (first compound 2.53 µM) and in assay [4] (first compound 8 µM) were 0.477 and 0.457, respectively.
As for NCI-H1666, the relative viability in assay [1] (first compound 0.08 µM) was determined as 0.862; in assay [1] (first compound 0.253 µM), 0.959; in assay [1] (first compound 0.8 µM), 0.936; in assay [1] (first compound 2.53 µM), 0.793; in assay [1] (first compound 8 µM), 0.818; in assay [2] (first compound 0.08 µM), 1.08. The relative viability in assay [2] (first compound 0.253 µM) came to 0.953; in assay [2] (first compound 0.8 µM) it was 1.05; in assay [2] (first compound 2.53 µM), 0.852; in assay [2] (first compound 8 µM), 0.46; in assay [3] (first compound 0.08 µM), 0.635; in assay [3] (first compound 0.253 µM) it was 0.633. Further, the relative viability came out at 0.666 in assay [3] (first compound 0.8 µM); 0.603 in assay [3] (first compound 2.53 µM); 0.5 in assay [3] (first compound 8 µM); 1.01 in assay [4] (first compound 0.08 µM); 1 in assay [4] (first compound 0.253 µM); 0.978 in assay [4] (first compound 0.8 µM). The relative viability in assay [4] (first compound 2.53 µM) is 1.01; in assay [4] (first compound 8 µM) it was 0.749.
